Assay results: patent US9353107B2 (Aurigene Discovery Technologies Limited, priority 2012, dated 2016)

Biological target: T1, recombinant human ALK enzyme (ALK WT) (Homo sapiens, UniProt Q9UM73)
T1 construct: purchased Carna Biosciences 08-518
Test: ALK WT cell free enzymatic assay (TR-FRET)
Type: biochemical
Conditions: 1 μM ATP; for inhibition at 0.1 µM: compound at 100 nM; for inhibition at 0.1 µM / inhibition at 1 µM: 30 min pre-incubation; for inhibition at 1 µM: compound at 1 μM; for IC50: 10 point dose response
Outline: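 Read-out is TR-FRET (665 nm/615 nm ratio) using an Eu-labeled anti-phosphotyrosine antibody. Compound is pre-incubated 30 min with recombinant human ALK, then reacted 30 min with 1 μM ATP and 40 nM Poly GT substrate. Values are percent inhibition at 100 nM and 1 μM, plus IC50 from 10-point variable-slope regression.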

T1 sequence (Q9UM73 1058-1620 limits assumed): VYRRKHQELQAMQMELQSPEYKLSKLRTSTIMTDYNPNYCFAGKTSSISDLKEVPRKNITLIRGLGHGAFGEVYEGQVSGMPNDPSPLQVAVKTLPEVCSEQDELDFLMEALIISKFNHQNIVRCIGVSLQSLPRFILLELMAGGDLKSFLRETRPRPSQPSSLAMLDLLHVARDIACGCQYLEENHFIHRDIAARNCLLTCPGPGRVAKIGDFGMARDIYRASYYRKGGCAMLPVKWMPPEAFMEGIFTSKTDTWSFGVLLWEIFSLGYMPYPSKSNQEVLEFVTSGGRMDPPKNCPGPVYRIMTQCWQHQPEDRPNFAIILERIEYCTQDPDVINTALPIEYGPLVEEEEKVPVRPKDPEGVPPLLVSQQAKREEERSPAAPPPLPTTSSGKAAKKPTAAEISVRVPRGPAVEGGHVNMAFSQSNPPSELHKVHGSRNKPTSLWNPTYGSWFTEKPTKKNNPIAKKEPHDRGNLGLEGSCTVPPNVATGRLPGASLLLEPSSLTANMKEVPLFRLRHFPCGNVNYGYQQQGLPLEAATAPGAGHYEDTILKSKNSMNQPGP

Compound	inhibition at 0.1 µM	inhibition at 1 µM	IC50
COc1ccc(-c2cnc3[nH]cc(-c4ccn(Cc5cc(F)cc(F)c5)n4)c3c2)cc1NS(C)(=O)=O [Example 69, N-(5-(3-(1-(3,5-difluorobenzyl)-1H-pyrazol-3-yl)-1H-pyrrolo[2,3-b]pyridin-5-yl)-2-methoxyphenyl)methanesulfonamide]	15%	76%	
COc1ccc(-c2cnc3[nH]cc(-c4cnn(Cc5cc(F)ccc5F)c4)c3c2)cc1NS(C)(=O)=O [Example 70, N-(5-(3-(1-(2,5-difluorobenzyl)-1H-pyrazol-4-yl)-1H-pyrrolo[2,3-b]pyridin-5-yl)-2-methoxyphenyl)methanesulfonamide]	91%	99%	< 50 nM
COc1ccc(-c2cnc3[nH]cc(-c4cnn(Cc5cc(F)cc(F)c5)c4)c3c2)cc1NS(C)(=O)=O [Example 71, N-(5-(3-(1-(3,5-difluorobenzyl)-1H-pyrazol-4-yl)-1H-pyrrolo[2,3-b]pyridin-5-yl)-2-methoxyphenyl)methanesulfonamide]	94%	100%	< 50 nM
COc1ccc(-c2cnc3[nH]cc(-c4cnn(Cc5cccnc5)c4)c3c2)cc1NS(C)(=O)=O [Example 72, N-(2-methoxy-5-(3-(1-(pyridin-3-ylmethyl)-1H-pyrazol-4-yl)-1H-pyrrolo[2,3-b]pyridin-5-yl)phenyl)methanesulfonamide]	76%	100%	50 to 250 nM
COc1cc(-c2cnc3[nH]cc(-c4cnn(Cc5cc(F)cc(F)c5)c4)c3c2)ccc1NS(C)(=O)=O [Example 73, N-(4-(3-(1-(3,5-difluorobenzyl)-1H-pyrazol-4-yl)-1H-pyrrolo[2,3-b]pyridin-5-yl)-2-methoxyphenyl)methanesulfonamide]	92%	97%	< 50 nM
COc1ccc(-c2cnc3[nH]cc(-c4cnn(CCc5ccccc5F)c4)c3c2)cc1NS(C)(=O)=O [Example 74, N-(5-(3-(1-(2-fluorophenethyl)-1H-pyrazol-4-yl)-1H-pyrrolo[2,3-b]pyridin-5-yl)-2-methoxyphenyl)methanesulfonamide]	51%	92%	50 to 250 nM
COc1ccc(-c2cnc3[nH]cc(-c4cnn(CCc5cccc(F)c5)c4)c3c2)cc1NS(C)(=O)=O [Example 75, N-(5-(3-(1-(3-fluorophenethyl)-1H-pyrazol-4-yl)-1H-pyrrolo[2,3-b]pyridin-5-yl)-2-methoxyphenyl)methanesulfonamide]	61%	100%	< 50 nM
COc1ccc(-c2cnc3[nH]cc(-c4cnn(CCc5ccc(F)cc5)c4)c3c2)cc1NS(C)(=O)=O [Example 76, N-(5-(3-(1-(4-fluorophenethyl)-1H-pyrazol-4-yl)-1H-pyrrolo[2,3-b]pyridin-5-yl)-2-methoxyphenyl)methanesulfonamide]	32%	94%	50 to 250 nM
CS(=O)(=O)Nc1cc(-c2cnc3[nH]cc(-c4cnn(CCc5ccccc5)c4)c3c2)ccc1F [Example 77, N-(2-fluoro-5-(3-(1-phenethyl-1H-pyrazol-4-yl)-1H-pyrrolo[2,3-b]pyridin-5-yl)phenyl)methane sulfonamide]	85%	100%	< 50 nM
CS(=O)(=O)Nc1cc(-c2cnc3[nH]cc(-c4cnn(Cc5cccc(F)c5)c4)c3c2)ccc1F [Example 78, N-(2-fluoro-5-(3-(1-(3-fluorobenzyl)-1H-pyrazol-4-yl)-1H-pyrrolo[2,3-b]pyridin-5-yl)phenyl) methanesulfonamide]	100%	101%	< 50 nM
CS(=O)(=O)Nc1cc(-c2cnc3[nH]cc(-c4cnn(Cc5cc(F)cc(F)c5)c4)c3c2)ccc1F [Example 79, N-(5-(3-(1-(3,5-difluorobenzyl)-1H-pyrazol-4-yl)-1H-pyrrolo[2,3-b]pyridin-5-yl)-2-fluorophenyl) methanesulfonamide]	101%	102%	< 50 nM
Cc1nn(Cc2cc(F)cc(F)c2)c(C)c1-c1c[nH]c2ncc(-c3ccc(F)c(NS(C)(=O)=O)c3)cc12 [Example 80, N-(5-(3-(1-(3,5-difluorobenzyl)-3,5-dimethyl-1H-pyrazol-4-yl)-1H-pyrrolo[2,3-b]pyridin-5-yl)-2-fluorophenyl)methanesulfonamide]	65%	93%	50 to 250 nM
COc1cc(-c2cnc3[nH]cc(-c4cnn(Cc5cccc(F)c5)c4)c3c2)cnc1N [Example 81, 5-(3-(1-(3-fluorobenzyl)-1H-pyrazol-4-yl)-1H-pyrrolo[2,3-b]pyridin-5-yl)-3-methoxypyridin-2-amine]	94%	96%	< 50 nM
Fc1cccc(Cn2cc(-c3c[nH]c4ncc(-c5ccc(C6CCNCC6)cc5)cc34)cn2)c1 [Example 82, 3-(1-(3-fluorobenzyl)-1H-pyrazol-4-yl)-5-(4-(piperidin-4-yl)phenyl)-1H-pyrrolo[2,3-b]pyridine]	99%	100%	< 50 nM
C[C@H](O)CN1CCC(c2ccc(-c3cnc4[nH]cc(-c5cnn(Cc6cccc(F)c6)c5)c4c3)cc2)CC1 [Example 82A, (S)-1-(4-(4-(3-(1-(3-fluorobenzyl)-1H-pyrazol-4-yl)-1H-pyrrolo[2,3-b]pyridin-5-yl)phenyl)piperidin-1-yl)propan-2-ol]	96%	98%	< 50 nM
CN1CCC(c2ccc(-c3cnc4[nH]cc(-c5cnn(Cc6cccc(F)c6)c5)c4c3)cc2)CC1 [Example 83, 3-(1-(3-fluorobenzyl)-1H-pyrazol-4-yl)-5-(4-(1-methylpiperidin-4-yl)phenyl)-1H-pyrrolo[2,3-b]pyridine]	96%	100%	< 50 nM
Fc1cccc(Cn2cc(-c3c[nH]c4ncc(-c5ccc(C6CCNCC6)c(F)c5)cc34)cn2)c1 [Example 84, 5-(3-fluoro-4-(piperidin-4-yl)phenyl)-3-(1-(3-fluorobenzyl)-1H-pyrazol-4-yl)-1H-pyrrolo[2,3-b]pyridine]	98%	100%	< 50 nM

Next, values leading:

inhibition at 0.1 µM	inhibition at 1 µM	IC50	Compound
95%	100%	< 50 nM	Cc1cccc(Cn2cc(-c3c[nH]c4ncc(-c5ccc(C6CCNCC6)cc5)cc34)cn2)c1 [Example 85, 3-(1-(3-methylbenzyl)-1H-pyrazol-4-yl)-5-(4-(piperidin-4-yl)phenyl)-1H-pyrrolo[2,3-b]pyridine]
96%	98%	< 50 nM	COc1cc(-c2cnc3[nH]cc(-c4cnn(Cc5cccc(F)c5)c4)c3c2)ccc1C1CCNCC1 [Example 86, 3-(1-(3-fluorobenzyl)-1H-pyrazol-4-yl)-5-(3-methoxy-4-(piperidin-4-yl)phenyl)-1H-pyrrolo[2,3-b]pyridine]
84%	99%	< 50 nM	COc1cccc(Cn2cc(-c3c[nH]c4ncc(-c5ccc(C6CCNCC6)cc5)cc34)cn2)c1 [Example 87, 3-(1-(3-methoxybenzyl)-1H-pyrazol-4-yl)-5-(4-(piperidin-4-yl)phenyl)-1H-pyrrolo[2,3-b]pyridine]
89%	99%	< 50 nM	c1ccc(CCn2cc(-c3c[nH]c4ncc(-c5ccc(C6CCNCC6)cc5)cc34)cn2)cc1 [Example 88, 3-(1-phenethyl-1H-pyrazol-4-yl)-5-(4-(piperidin-4-yl)phenyl)-1H-pyrrolo[2,3-b]pyridine]
84%	98%	< 50 nM	c1cncc(Cn2cc(-c3c[nH]c4ncc(-c5ccc(C6CCNCC6)cc5)cc34)cn2)c1 [Example 89, 5-(4-(piperidin-4-yl)phenyl)-3-(1-(pyridin-3-ylmethyl)-1H-pyrazol-4-yl)-1H-pyrrolo[2,3-b]pyridine]
97%	100%	< 50 nM	Cc1nn(Cc2cccc(F)c2)cc1-c1c[nH]c2ncc(-c3ccc(C4CCNCC4)cc3)cc12 [Example 90, 3-(1-(3-fluorobenzyl)-3-methyl-1H-pyrazol-4-yl)-5-(4-(piperidin-4-yl)phenyl)-1H-pyrrolo[2,3-b]pyridine]
99%	100%	< 50 nM	Cc1c(-c2c[nH]c3ncc(-c4ccc(C5CCNCC5)cc4)cc23)cnn1Cc1cccc(F)c1 [Example 91, 3-(1-(3-fluorobenzyl)-5-methyl-1H-pyrazol-4-yl)-5-(4-(piperidin-4-yl)phenyl)-1H-pyrrolo[2,3-b]pyridine]
98%	100%	< 50 nM	Cc1nn(Cc2cccc(F)c2)c(C)c1-c1c[nH]c2ncc(-c3ccc(C4CCNCC4)cc3)cc12 [Example 92, 3-(1-(3-fluorobenzyl)-3,5-dimethyl-1H-pyrazol-4-yl)-5-(4-(piperidin-4-yl)phenyl)-1H-pyrrolo[2,3-b]pyridine]
79%	97%	< 50 nM	c1ccc(Cn2cc(-c3c[nH]c4ncc(-c5ccc(C6CCNCC6)cc5)cc34)cn2)nc1 [Example 93, 5-(4-(piperidin-4-yl)phenyl)-3-(1-(pyridin-2-ylmethyl)-1H-pyrazol-4-yl)-1H-pyrrolo[2,3-b]pyridine]
98%	100%	< 50 nM	Cc1nn(Cc2cccc(F)c2)c(C)c1-c1c[nH]c2ncc(-c3cccc(NC4CCNCC4)c3)cc12 [Example 94, N-(3-(3-(1-(3-fluorobenzyl)-3,5-dimethyl-1H-pyrazol-4-yl)-1H-pyrrolo[2,3-b]pyridin-5-yl)phenyl)piperidin-4-amine]
